From patent US11746100B2 (GLOBAL BLOOD THERAPEUTICS, INC., priority 2020, dated 2023)

What follows are compounds tested against T1, human ferroportin (Homo sapiens, UniProt Q9NP59) (assay: Biological in-vitro ferroportin internalization assay (luciferase reporter)). Conditions: average pEC50; stably-transfected CHO cell line expressing human ferroportin tagged to a luciferase reporter; 6 h incubation with test compound.
T1 construct: luciferase reporter (read with the Nano-Glo Luciferase Assay System); expressed in transfected cells; host or cells: CHO cells, stably transfected, expression induced with doxycycline
T1 sequence (Q9NP59 1-571): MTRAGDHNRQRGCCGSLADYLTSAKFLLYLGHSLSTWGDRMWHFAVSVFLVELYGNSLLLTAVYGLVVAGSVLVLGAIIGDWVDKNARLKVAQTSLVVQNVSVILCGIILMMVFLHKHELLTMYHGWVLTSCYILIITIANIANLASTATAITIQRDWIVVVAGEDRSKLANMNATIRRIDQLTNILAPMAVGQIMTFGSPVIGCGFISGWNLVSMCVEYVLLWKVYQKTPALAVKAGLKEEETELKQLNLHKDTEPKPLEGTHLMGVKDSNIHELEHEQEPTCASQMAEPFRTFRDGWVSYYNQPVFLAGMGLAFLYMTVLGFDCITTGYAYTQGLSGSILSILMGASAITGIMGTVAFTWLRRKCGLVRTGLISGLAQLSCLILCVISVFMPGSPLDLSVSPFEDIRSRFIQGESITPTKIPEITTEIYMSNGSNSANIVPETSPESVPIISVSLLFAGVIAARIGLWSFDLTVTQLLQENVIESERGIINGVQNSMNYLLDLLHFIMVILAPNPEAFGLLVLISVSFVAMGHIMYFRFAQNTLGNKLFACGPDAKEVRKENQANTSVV
Format: cell-based
Method in brief: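 Read-out is Nano-Glo luciferase signal after 6 h compound exposure, with average pEC50 derived. Cells are a stable CHO line carrying luciferase-tagged human ferroportin, pre-loaded 24 h with ferric ammonium citrate and doxycycline-induced for 24 h.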

| pEC50 | Compound |
| --- | --- |
| 7.8 | CCOc1ccnc(-c2nc3c(c(N(C)CC(=O)Nc4ccc(OC)nc4)n2)CCC3)c1 [Compound 223, 2-{[2-(4-ethoxypyridin-2-yl)-5H,6H,7H-cyclopenta[d]pyrimidin-4-yl](methyl)amino}-N-(6-methoxypyridin-3-yl)acetamide] |
| 7.6 | CN(Cc1ncn(-c2cccc(F)c2)n1)c1nc(-c2cc(OCCO)ccn2)nc2c1CCC2 [Compound 351, 2-({2-[4-({[1-(3-fluorophenyl)-1H-1,2,4-triazol-3-yl]methyl}(methyl)amino)-5H,6H,7H-cyclopenta[d]pyrimidin-2-yl]pyridin-4-yl}oxy)ethan-1-ol] |
| 8.3 | COc1ccc(NC(=O)CN(C)c2nc(-c3cc(OCCO)ccn3)nc3c2C(C)(C)CC3)cn1 [Compound 363, 2-({2-[4-(2-hydroxyethoxy)pyridin-2-yl]-5,5-dimethyl-5H,6H,7H-cyclopenta[d]pyrimidin-4-yl}(methyl)amino)-N-(6-methoxypyridin-3-yl)acetamide] |
| 6.6 | CN(CC(=O)Nc1cncc(OC(F)(F)F)c1)c1nc(-c2cc3ccccc3cn2)nc2c1CCC2 [Compound 283, 2-{[2-(isoquinolin-3-yl)-5H,6H,7H-cyclopenta[d]pyrimidin-4-yl](methyl)amino}-N-[5-(trifluoromethoxy)pyridin-3-yl]acetamide] |
| 6.4 | CN(Cc1nncn1-c1cccc(F)c1)c1nc(-c2cc(OCCO)ccn2)nc2c1CCC2 [Compound 319] |
| 7.6 | CN(CC(=O)NC(C)(C)CO)c1nc(-c2cc(OCCO)ccn2)nc2c1CCC2 [Compound 148, N-(1-hydroxy-2-methylpropan-2-yl)-2-({2-[4-(2-hydroxyethoxy)pyridin-2-yl]-5H,6H,7H-cyclopenta[d]pyrimidin-4-yl}(methyl)amino)acetamide] |
| 7.3 | COc1ccnc(-c2nc3c(c(N(C)CC(=O)NC4(C(F)(F)F)CC4)n2)CCC3)c1 [Compound 99, 2-{[2-(4-methoxypyridin-2-yl)-5H,6H,7H-cyclopenta[d]pyrimidin-4-yl](methyl)amino}-N-[1-(trifluoromethyl)cyclopropyl]acetamide] |
| 5.9 | O=C(NC1CCCCC1)C1CN(c2nc(-c3ccccn3)nc3c2CCC3)C1 [Compound 29, N-cyclohexyl-1-[2-(pyridin-2-yl)-5H,6H,7H-cyclopenta[d]pyrimidin-4-yl]azetidine-3-carboxamide] |
| 6.8 | COc1ccc(NC(=O)CN(C)c2nc(-c3cc4scnc4cn3)nc3c2CCC3)cn1 [Compound 304, N-(6-methoxypyridin-3-yl)-2-[methyl(2-{[1,3]thiazolo[4,5-c]pyridin-6-yl}-5H,6H,7H-cyclopenta[d]pyrimidin-4-yl)amino]acetamide] |
| 7.2 | CN(CC(=O)NC1(C(F)(F)F)CC1)c1nc(-c2cn(C)cn2)nc2c1CCC2 [Compound 111, 2-{methyl[2-(1-methyl-1H-imidazol-4-yl)-5H,6H,7H-cyclopenta[d]pyrimidin-4-yl]amino}-N-[1-(trifluoromethyl)cyclopropyl]acetamide] |
| 7.7 | COc1ccc(NC(=O)[C@@H](C)N(C)c2nc(-c3cc(OC4COC4)ccn3)nc3c2CCC3)cn1 [Compound 312, (2R)-N-(6-methoxypyridin-3-yl)-2-[methyl({2-[4-(oxetan-3-yloxy)pyridin-2-yl]-5H,6H,7H-cyclopenta[d]pyrimidin-4-yl})amino]propanamide] |
| 6.9 | COc1cnc(-c2nc3c(c(N(C)CC(=O)NC(C)(C)C)n2)CCC3)cc1OC [Compound 145, N-tert-butyl-2-{[2-(4,5-dimethoxypyridin-2-yl)-5H,6H,7H-cyclopenta[d]pyrimidin-4-yl](methyl)amino}acetamide] |
| 6.8 | CN(Cc1nc2ccccc2o1)c1nc(-c2ccccn2)nc2c1CCC2 [Compound 82, N-[(1,3-benzoxazol-2-yl)methyl]-N-methyl-2-(pyridin-2-yl)-5H,6H,7H-cyclopenta[d]pyrimidin-4-amine] |
